Data published in patent US20260364182A1, “PROTEOLYSIS-TARGETING CHIMERAS AGAINST THE PAPAIN-LIKE PROTEASE OF SARS-COV-2” (Tocris Cookson Limited, priority 2022, published 2026).
pEC50, pIC50: −log10 of the molar value.

Legend:
[1] = test system: SARS-CoV-2; experiment: Antiviral assay in infected Vero E6 cells (ATP quantification, Cell Titer Glo); conditions: Severe acute respiratory syndrome coronavirus 2, Vero C1008, 72 h; for inhibition at 10 µM: read-out: Antiviral Activity, 10 uM (cell viability assay), 10 uM; for inhibition at 10 µM / inhibition at 50 µM: Vero E6 cells, MOI 0.05, 72 h; for inhibition at 50 µM: read-out: Antiviral Activity, 50 uM (cell viability assay), 50 uM
Procedure: Vero E6 cells (2×10^4/well) were seeded in 96 well plates one day before the experiment. Pre-treatment, the medium was removed and compounds were added at concentrations varying from 0.1-100 μM. After 24 h incubation, the medium was removed and cells were infected with MOI 0.05 SARS-CoV-2 SARS-CoV2/ZG/297-20. After 1 h infection, the viruses were removed and the same concentration of compounds were added back into the cells. After 72 h incubation at 37 °C, EC50 measurements were made using ATP quantification (Cell Titer Glo).

[2] = target: T1, SARS-CoV-2 PLpro (Severe acute respiratory syndrome coronavirus 2, UniProt P0DTD1); experiment: IC50 inhibitory assay, fluorogenic substrate cleavage by PLpro; type: biochemical; conditions: SARS-CoV-2 PLpro 0.1 μM; substrate 10 μM; pH 8.1; 37 °C; 10 min preincubation
T1 construct: The papain-like protease domain (PLpro) of SARS-CoV-2 (SCoV2)
Procedure: The inhibitory activities of compounds against SARS-CoV-2 PLpro were determined in a reaction buffer containing 20 mM HEPES, 40 mM NaCl, 5% glycerol, 2 mM DTT (freshly added before the measurements), pH 8.1, at 37 °C. A fluorescent substrate of SARS-CoV-2 PLpro (Z-Arg-leu-Arg-Gly-Gly-[…]AMC; Biosyntan, Berlin) was used, and the fluorescence signal of the cleaved substrate was monitored using a Tecan Spark® fluorescence spectrophotometer at an […] wavelength of 460/360 nm. SARS-CoV-2 PLpro (10 μL per well) was pipetted into a 96-well plate together with reaction buffer reaction buffer (50 μL per well, final enzyme concentration: 0.1 μM). Compounds (10 μL per well) were added at varying concentrations, and plates incubated at 37 °C for 10 mins. Finally, the reaction was initiated by adding 30 μL of the substrate (final concentration: 10 μM) dissolved in the reaction buffer.
FIG. 1: PROTAC and parent ligand for SARS-CoV-2 PLpro in a binary IC50 experiment. C10778A PROTAC (top left), comprising a SARS-CoV-2 PLpro targeting ligand C10778B (bottom left) connected to thalidomide via a C3 alkyl linker. IC50 values have been determined in an in vitro inhibitory binding assay whereby the fluorescence signal resulting from cleavage of a fluorogenic substrate by PLpro is measured. Inhibition of PLpro is associated with reduced cleavage of the fluorogenic substrate. […] Assay conditions: experiments were performed in 20 mM HEPES buffer containing 40 mM NaCl 5% glycerol, 2 mM DTT at pH 8.1. A fluorogenic substrate for PLpro (Z-Arg-leu-Arg-Gly-Gly-AMC) was used to determine the inhibition rate of compounds. Final DMSO concentration in each reaction was 1%. Measurements were performed in triplicate.

[3] = test system: SARS-CoV-2; experiment: Plaque reduction assay in Vero E6 cells; type: cell-based; conditions: MOI 0.1

**Q.** With `C[C@H](c1cccc2ccccc12)N1CCC(C(=O)NCc2cc(F)cc(NC(=O)N3CCN(CCCCCCOc4cccc5c4C(=O)N(C4CCC(=O)NC4=O)C5=O)CC3)c2)CC1` (some centres unmarked) [TS444] as the compound, how does the inhibition at 10 µM [1] read?
**A.** < 25%

**Q.** And the inhibition at 50 µM [1]?
**A.** < 25%

**Q.** And the pIC50 [2]?
**A.** > 5.00

**Q.** `C[C@H](c1cccc2ccccc12)N1CCC(C(=O)NCc2cc(F)cc(NC(=O)N3CCN(CCOc4cccc5c4C(=O)N(C4CCC(=O)NC4=O)C5=O)CC3)c2)CC1` (some centres unmarked) [TS445] was tested. Which inhibition at 10 µM [1] did it give?
**A.** < 25%

**Q.** What about the inhibition at 50 µM [1] of the same compound?
**A.** < 25%

**Q.** And the pIC50 [2]?
**A.** > 6.00

**Q.** `C[C@H](c1cccc2ccccc12)N1CCC(C(=O)NCc2cc(F)cc(NC(=O)N3CCN(CCCCCCCCOc4cccc5c4C(=O)N(C4CCC(=O)NC4=O)C5=O)CC3)c2)CC1` (some centres unmarked) [TS446] was tested. Which inhibition at 10 µM [1] did it give?
**A.** < 50%

**Q.** And the inhibition at 50 µM [1]?
**A.** > 75%

**Q.** And the pIC50 [2]?
**A.** < 4.60

**Q.** `C[C@H](c1cccc2ccccc12)N1CCC(C(=O)NCc2cc(F)cc(NC(=O)N3CCN(CCCCOc4cccc5c4C(=O)N(C4CCC(=O)NC4=O)C5=O)CC3)c2)CC1` (some centres unmarked) [TS452] was tested. Which inhibition at 10 µM [1] did it give?
**A.** < 0%

**Q.** What about the inhibition at 50 µM [1] of the same compound?
**A.** < 0%

**Q.** What about the pIC50 [2] of the same compound?
**A.** > 5.00

**Q.** With `C[C@H](c1cccc2ccccc12)N1CCC(C(=O)NCc2cc(F)cc(NC(=O)N3CCN(CCOc4ccc5c(c4)C(=O)N(C4CCC(=O)NC4=O)C5=O)CC3)c2)CC1` (some centres unmarked) [TS499] as the compound, how does the inhibition at 10 µM [1] read?
**A.** < 25%

**Q.** What about the inhibition at 50 µM [1] of the same compound?
**A.** < 25%

**Q.** What about the pIC50 [2] of the same compound?
**A.** > 6.00

**Q.** `C[C@H](c1cccc2ccccc12)N1CCC(C(=O)NCc2cc(F)cc(NC(=O)N3CCN(CCCCCCCCOc4ccc5c(c4)C(=O)N(C4CCC(=O)NC4=O)C5=O)CC3)c2)CC1` (some centres unmarked) [TS516] was tested. Which pEC50 [1] did it give?
**A.** 5.36

**Q.** What about the inhibition at 10 µM [1] of the same compound?
**A.** < 50%

**Q.** What about the inhibition at 50 µM [1] of the same compound?
**A.** > 75%

**Q.** And the “plaque reduction (viable virus, in words)” value [3]?
**A.** efficiently reduces viable virus

**Q.** And the pIC50 [2]?
**A.** 4.60 to 5.00

**Q.** With `C[C@H](c1cccc2ccccc12)N1CCC(C(=O)NCc2cc(F)cc(NC(=O)N3CCN(CCNC(=O)COc4ccc(C5CCC(=O)NC5=O)cc4)CC3)c2)CC1` (some centres unmarked) [TS519] as the compound, how does the inhibition at 10 µM [1] read?
**A.** < 25%

**Q.** And the inhibition at 50 µM [1]?
**A.** < 25%

**Q.** What about the pIC50 [2] of the same compound?
**A.** > 5.00

**Q.** What does the source list for `C[C@H](c1cccc2ccccc12)N1CCC(C(=O)NCc2cc(F)cc(NC(=O)N3CCN(CCCCNC(=O)COc4ccc(C5CCC(=O)NC5=O)cc4)CC3)c2)CC1` (some centres unmarked) [TS526]?
**A.** inhibition at 10 µM [1]: < 0%; inhibition at 50 µM [1]: < 25%; pIC50 [2]: > 5.00

**Q.** For `C[C@H](c1cccc2ccccc12)N1CCC(C(=O)NCc2cc(F)cc(NC(=O)N3CCN(CCCCCCNC(=O)COc4ccc(C5CCC(=O)NC5=O)cc4)CC3)c2)CC1` (some centres unmarked) [TS529], which inhibition at 10 µM [1] is on record?
**A.** < 75%

**Q.** What about the inhibition at 50 µM [1] of the same compound?
**A.** < 75%

**Q.** And the pIC50 [2]?
**A.** > 5.00

**Q.** `C[C@H](c1cccc2ccccc12)N1CCC(C(=O)NCc2cc(F)cc(NC(=O)N3CCN(CCCCOc4ccc5c(c4)C(=O)N(C4CCC(=O)NC4=O)C5=O)CC3)c2)CC1` (some centres unmarked) [TS530] was tested. Which inhibition at 10 µM [1] did it give?
**A.** < 25%

**Q.** What about the inhibition at 50 µM [1] of the same compound?
**A.** < 75%

**Q.** What about the pIC50 [2] of the same compound?
**A.** > 5.00

**Q.** `C[C@H](c1cccc2ccccc12)N1CCC(C(=O)NCc2cc(F)cc(NC(=O)N3CCN(CCCCCCOc4ccc5c(c4)C(=O)N(C4CCC(=O)NC4=O)C5=O)CC3)c2)CC1` (some centres unmarked) [TS534] was tested. Which inhibition at 10 µM [1] did it give?
**A.** < 25%

**Q.** What about the inhibition at 50 µM [1] of the same compound?
**A.** > 75%

**Q.** And the pIC50 [2]?
**A.** > 5.00

**Q.** `C[C@H](c1cccc2ccccc12)N1CCC(C(=O)NCc2cc(F)cc(NC(=O)N3CCN(CC4CCN(c5ccc6c(c5)C(=O)N(C5CCC(=O)NC5=O)C6=O)CC4)CC3)c2)CC1` (some centres unmarked) [TS535] was tested. Which inhibition at 10 µM [1] did it give?
**A.** < 25%

**Q.** And the inhibition at 50 µM [1]?
**A.** < 75%

**Q.** And the pIC50 [2]?
**A.** 4.60 to 5.00

**Q.** For `C[C@H](c1cccc2ccccc12)N1CCC(C(=O)NCc2cc(F)cc(NC(=O)N3CCN(CCCCC(=O)N4CCN(c5ccc(C6CCC(=O)NC6=O)cc5)CC4)CC3)c2)CC1` (some centres unmarked) [TS551], which inhibition at 10 µM [1] is on record?
**A.** < 25%

**Q.** And the inhibition at 50 µM [1]?
**A.** < 50%

**Q.** What about the pIC50 [2] of the same compound?
**A.** > 5.00

**Q.** `C[C@H](c1cccc2ccccc12)N1CCC(C(=O)NCc2cc(F)cc(NC(=O)N3CCN(CCCCC(=O)N4CCN(c5ccc(N6CCC(=O)NC6=O)cc5)CC4)CC3)c2)CC1` [TS553] was tested. Which inhibition at 10 µM [1] did it give?
**A.** < 25%

**Q.** What about the inhibition at 50 µM [1] of the same compound?
**A.** < 25%

**Q.** And the pIC50 [2]?
**A.** > 5.00

**Q.** With `C[C@H](c1cccc2ccccc12)N1CCC(C(=O)NCc2cc(F)cc(NC(=O)N3CCN(CCCCNC(=O)COc4ccc(N5CCC(=O)NC5=O)cc4)CC3)c2)CC1` [TS557] as the compound, how does the inhibition at 10 µM [1] read?
**A.** < 0%

**Q.** And the inhibition at 50 µM [1]?
**A.** < 0%

**Q.** And the pIC50 [2]?
**A.** > 5.00

**Q.** `Cc1ncsc1-c1ccc(CNC(=O)[C@@H]2C[C@@H](O)CN2C(=O)[C@@H](NC(=O)CCCCN2CCN(C(=O)Nc3cc(F)cc(CNC(=O)C4CCN([C@H](C)c5cccc6ccccc56)CC4)c3)CC2)C(C)(C)C)cc1` [TS558] was tested. Which inhibition at 10 µM [1] did it give?
**A.** < 0%

**Q.** What about the inhibition at 50 µM [1] of the same compound?
**A.** < 0%

**Q.** What about the pIC50 [2] of the same compound?
**A.** > 5.00

**Q.** `Cc1ccc(C(=O)NCCCCN2CCN(C(=O)Nc3cc(F)cc(CNC(=O)C4CCN([C@H](C)c5cccc6ccccc56)CC4)c3)CC2)cc1N1CCC(=O)NC1=O` [TS567] was tested. Which inhibition at 10 µM [1] did it give?
**A.** < 0%

**Q.** And the inhibition at 50 µM [1]?
**A.** < 0%

**Q.** And the pIC50 [2]?
**A.** > 5.00

**Q.** What does the source list for `C[C@H](c1cccc2ccccc12)N1CCC(C(=O)NCc2cc(F)cc(NC(=O)N3CCN(CCOCCOCCC(=O)N4CCN(c5ccc(C6CCC(=O)NC6=O)cc5)CC4)CC3)c2)CC1` (some centres unmarked) [TS568]?
**A.** inhibition at 10 µM [1]: < 25%; inhibition at 50 µM [1]: < 75%; pIC50 [2]: > 5.00

**Q.** How did the inhibition at 10 µM [1] turn out when `C[C@H](c1cccc2ccccc12)N1CCC(C(=O)NCc2cc(F)cc(NC(=O)N3CCN(CCOCCOCCC(=O)N4CCN(c5ccc(N6CCC(=O)NC6=O)cc5)CC4)CC3)c2)CC1` [TS569] was run?
**A.** < 0%

**Q.** And the inhibition at 50 µM [1]?
**A.** < 25%

**Q.** What about the pIC50 [2] of the same compound?
**A.** > 5.00
